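Compound exposure: 48 hours, 5 concentrations, 96-well plates. GI50 is the concentration that inhibits growth by half.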 Calls of active or inactive are those of the source. Cut-off read from the data, not from the text of the source: active = GI50 up to about 1.1 µM and inactive = higher.
Experiments:
Assay in all cases: NCI tumour cell line growth inhibition, 48 h
[1] = test system: CAKI-1
[2] = test system: CCRF-CEM
[3] = test system: COLO 205
[4] = test system: HCC 2998
[5] = test system: HL-60
[6] = test system: HOP-62
[7] = test system: IGROV-1
[8] = test system: LOX IMVI
[9] = test system: M14
[10] = test system: MDA-MB-231
[11] = test system: MDA-MB-435
[12] = test system: NCI-H522
[13] = test system: OVCAR-3
[14] = test system: OVCAR-4
[15] = test system: OVCAR-8
[16] = test system: SF-295
[17] = test system: SW-620
[18] = test system: T47D
[19] = test system: U-251
[20] = test system: UO-31

CCCc1cn2c(/C=N/NC(=N)N)c(-c3ccc([N+](=O)[O-])cc3)nc2s1
GI50 [1]: 1.69 µM (inactive)
GI50 [2]: 0.277 µM (active)
GI50 [3]: 0.891 µM (active)
GI50 [4]: 0.578 µM (active)
GI50 [5]: 0.45 µM (active)
GI50 [6]: 1.77 µM (inactive)
GI50 [7]: 1.77 µM (inactive)
GI50 [8]: 1.39 µM (inactive)
GI50 [9]: 1.93 µM (inactive)
GI50 [10]: 1.69 µM (inactive)
GI50 [11]: 1.63 µM (inactive)
GI50 [12]: 2.08 µM (inactive)
GI50 [13]: 0.548 µM (active)
GI50 [14]: 1.06 µM (active)
GI50 [15]: 1.9 µM (inactive)
GI50 [16]: 0.912 µM (active)
GI50 [17]: 0.342 µM (active)
GI50 [18]: 1.67 µM (inactive)
GI50 [19]: 0.769 µM (active)
GI50 [20]: 1.91 µM (inactive)

O=c1c2ccccc2n2c(-c3ccccc3O)nnc2n1-c1ccccc1
GI50 [1]: > 100 µM (inactive)
GI50 [2]: 67.3 µM (inactive)
GI50 [3]: > 100 µM (inactive)
GI50 [4]: > 100 µM (inactive)
GI50 [5]: > 100 µM (inactive)
GI50 [6]: > 100 µM (inactive)
GI50 [7]: > 100 µM (inactive)
GI50 [8]: > 100 µM (inactive)
GI50 [9]: > 100 µM (inactive)
GI50 [10]: > 100 µM (inactive)
GI50 [11]: > 100 µM (inactive)
GI50 [12]: > 100 µM (inactive)
GI50 [13]: > 100 µM (inactive)
GI50 [14]: > 100 µM (inactive)
GI50 [15]: > 100 µM (inactive)
GI50 [16]: > 100 µM (inactive)
GI50 [17]: > 100 µM (inactive)
GI50 [18]: > 100 µM (inactive)
GI50 [19]: > 100 µM (inactive)
GI50 [20]: 2.76 µM (inactive)

Cc1cc(C)c(NC(=S)NC(=O)c2ccccc2)cc1C
GI50 [1]: > 100 µM (inactive)
GI50 [2]: > 100 µM (inactive)
GI50 [3]: > 100 µM (inactive)
GI50 [4]: > 100 µM (inactive)
GI50 [5]: > 100 µM (inactive)
GI50 [6]: > 100 µM (inactive)
GI50 [7]: > 100 µM (inactive)
GI50 [8]: > 100 µM (inactive)
GI50 [9]: > 100 µM (inactive)
GI50 [10]: > 100 µM (inactive)
GI50 [11]: 52.8 µM (inactive)
GI50 [12]: > 100 µM (inactive)
GI50 [13]: > 100 µM (inactive)
GI50 [14]: 61.2 µM (inactive)
GI50 [15]: > 100 µM (inactive)
GI50 [16]: 34.4 µM (inactive)
GI50 [17]: > 100 µM (inactive)
GI50 [18]: 55.7 µM (inactive)
GI50 [19]: 64.1 µM (inactive)
GI50 [20]: > 100 µM (inactive)

CC(=O)c1c(SCCN2CCCC2)n(-c2ccccc2)c(=S)n(-c2ccccc2)c1=O
GI50 [1]: 4.34 µM (inactive)
GI50 [2]: 1.7 µM (inactive)
GI50 [3]: 1.76 µM (inactive)
GI50 [4]: 3.1 µM (inactive)
GI50 [5]: 3.55 µM (inactive)
GI50 [6]: 22.4 µM (inactive)
GI50 [7]: 7.03 µM (inactive)
GI50 [8]: 2.49 µM (inactive)
GI50 [9]: 2.39 µM (inactive)
GI50 [10]: 8.83 µM (inactive)
GI50 [11]: 5.9 µM (inactive)
GI50 [12]: 2.48 µM (inactive)
GI50 [13]: 2.5 µM (inactive)
GI50 [14]: 29 µM (inactive)
GI50 [15]: 9.48 µM (inactive)
GI50 [16]: > 76 µM (inactive)
GI50 [17]: 2.34 µM (inactive)
GI50 [18]: 2.11 µM (inactive)
GI50 [19]: 21.1 µM (inactive)
GI50 [20]: 1.4 µM (inactive)

CC(C)(C)C(=O)C(C(=O)C(C)(C)C)C(=O)C(C)(C)C
GI50 [1]: > 100 µM (inactive)
GI50 [2]: > 100 µM (inactive)
GI50 [3]: > 100 µM (inactive)
GI50 [4]: > 100 µM (inactive)
GI50 [5]: > 100 µM (inactive)
GI50 [6]: > 100 µM (inactive)
GI50 [7]: > 100 µM (inactive)
GI50 [8]: > 100 µM (inactive)
GI50 [9]: > 100 µM (inactive)
GI50 [10]: > 100 µM (inactive)
GI50 [11]: > 100 µM (inactive)
GI50 [12]: > 100 µM (inactive)
GI50 [13]: > 100 µM (inactive)
GI50 [14]: > 100 µM (inactive)
GI50 [15]: > 100 µM (inactive)
GI50 [16]: > 100 µM (inactive)
GI50 [17]: > 100 µM (inactive)
GI50 [18]: > 100 µM (inactive)
GI50 [19]: > 100 µM (inactive)
GI50 [20]: > 100 µM (inactive)

Cc1cc(=O)c2cc(/N=C/c3ccc([N+](=O)[O-])o3)ccc2o1
GI50 [1]: > 100 µM (inactive)
GI50 [2]: 41.1 µM (inactive)
GI50 [3]: > 100 µM (inactive)
GI50 [4]: > 100 µM (inactive)
GI50 [5]: 57.9 µM (inactive)
GI50 [6]: > 100 µM (inactive)
GI50 [7]: > 100 µM (inactive)
GI50 [8]: 42.7 µM (inactive)
GI50 [9]: > 100 µM (inactive)
GI50 [10]: > 100 µM (inactive)
GI50 [11]: 44.9 µM (inactive)
GI50 [12]: 64.6 µM (inactive)
GI50 [13]: > 100 µM (inactive)
GI50 [14]: > 100 µM (inactive)
GI50 [16]: > 100 µM (inactive)
GI50 [17]: 63.5 µM (inactive)
GI50 [18]: > 100 µM (inactive)
GI50 [19]: > 100 µM (inactive)
GI50 [20]: > 100 µM (inactive)

O=c1oc2cccnc2n1CCCCN1CCN(c2ccccc2)CC1
GI50 [1]: > 100 µM (inactive)
GI50 [2]: > 100 µM (inactive)
GI50 [4]: > 100 µM (inactive)
GI50 [5]: > 100 µM (inactive)
GI50 [6]: > 100 µM (inactive)
GI50 [7]: > 100 µM (inactive)
GI50 [8]: > 100 µM (inactive)
GI50 [9]: > 100 µM (inactive)
GI50 [10]: > 100 µM (inactive)
GI50 [11]: > 100 µM (inactive)
GI50 [12]: > 100 µM (inactive)
GI50 [13]: > 100 µM (inactive)
GI50 [14]: > 100 µM (inactive)
GI50 [15]: > 100 µM (inactive)
GI50 [16]: > 100 µM (inactive)
GI50 [17]: > 100 µM (inactive)
GI50 [18]: > 100 µM (inactive)
GI50 [19]: > 100 µM (inactive)
GI50 [20]: > 100 µM (inactive)
